Measured values taken from patent publication US5800838A, “Composition that inhibits or destroys at least one unicellular living organism containing fluorine F- and Lithium li+” (priority 1987, dated 1998).
Converted amounts (≈) assume the structure as drawn. Where two headings read alike, the source gives them in different places.

Legend:
Klebsiella pneumoniae [1] = test system: Klebsiella pneumoniae
Klebsiella pneumoniae [2] = assay: microbe, parasite or virus in culture
Protocol: The MIC of tetracycline was studied on Klebsiella pneumoniae (wild-type hospital strain).
The trial was conducted with tetracycline alone, tetracycline in presence of FNa and tetracycline in presence of Fli.

Staphylococcus aureus [3] = conditions: A (tetracycline) in presence of B (Fli)
Protocol: (§9) Concentration series of two antibiotic substances A and B are prepared in the geometric ratio of 2 are combined and the following values are determined:
(§10) MIC B/A = minimal inhibiting concentration B in presence of A [formula]
(§11) The MIC of the bacteriostatic effect is read when the percentage of surviving strains is less or equal to 1%.
(§12) The combination of the substances A and B is synergistic as regards the bacteriostatic effect when FIC≤0,75. The combination is additive when FIC=1. The combination is insensible when 1<FIC≤2. The combination is antagonistic when FIC>2.
(§13) Substance A was tetracycline (concentration serie from 0,25 to 128 mg/l)
(§14) Substance B was Fli (concentration serie from 0,25 to 16 mg/l)
(§15) The strain was staphylococcus aureus (wild-type hospital resistant strain)

Staphylococcus aureus [4] = assay: microbe, parasite or virus in culture; conditions: read-out: MIC alone (MIC A, MIC B)
Protocol: as §9, §10, §11, §12, §13, §14, §15

streptococcus group F = assay: Phenotype of resistant wild-type hospital strains with activated antibiotics (Example 35); format: cell-based; conditions: Fli 4 ppm
Protocol: Strains Gram+ and Gram- (wild-type hospital) having a resistant phenotype vis a vis standard firstly and secondly used antibiotherapy were experimented on activated antibiotics.
250 experiments were conducted on the following strains: Streptococcus group B, C, D, F, G, Staphylococcus aureus, Staphylococcus epidermitis, Klebsiella pneumoniae, Klebsiella spirochete, Klebsiella oxytoca, Proteus mirabilis, Serratia marcescens, Escherichia coli, Citrobacter freundii, Enterobacter cloacae, Enterobacter calcoaceticus, Salmonella spirochete, Salmonella typhimurium, Pseudomonas aeruginosa, Haemophilus influenzae, Haemophilus sphrophilus, Acinetobacter calcoaeticus. […]

Escherichia coli = assay: Activity on wild-type hospital strains responsible for skin infections; format: cell-based
Staphylococcus aureus [5] = assay: as above; format: cell-based
Group C streptococcus = assay: as above; format: cell-based
Pseudomonas aeruginosa [6] = assay: MIC of gentamicine, inclined agar with concentration gradient; format: cell-based; conditions: in presence of Fli at 16; RESISTANT strains
Protocol: (§1) The strains used were wild-type hospital strains having a resistant phenotype as regards gentamicine: pseudomonas aeruginosa, proteus mirabilis, serratia marcescens.
(§2) The phenotype of the strains was determined by diffusion in gradient on selective agar. Then, each group of strains having the same phenotype (resistant or sensible) was seeded on inclined agar having a gradient of concentration of the composition.
(§3) This methodology is explained by SZYBALSKI and BRYSON in "Selection de mutants resistant aux antibiotiques", L'antibiogramme, Vigot, p. 259-260.
(§4) The results are shown in the following table illustrating the MIC of gentamicine (aminoglycoside antibiotic).
(§5) x/y means a concentration read between x ppm and y ppm.

serratia marcescens [7] = assay: as above; format: cell-based
Protocol: as §1, §2, §3, §4, §5

Pseudomonas aeruginosa [8] = assay: "chess" test, dilution in liquid medium, Trial 4; format: cell-based
Description: (§6) Substance A was gentamicine
The strain was pseudomonas aeruginosa (wild-type hospital resistant strain)

[9] = test system: pseudomonas aeruginosa and Escherichia coli; format: cell-based
Description: It is known that a strain develops a resistance against an antibiotic substance with which it is left in contact, by a phenotypical mutation procedure.
This phenomena has been studied on pseudomonas aeruginosa and Escherichia coli (wild-type hospital strains) which commonly develop resistance against aminosides. The antibiotic substance choosen was thus gentamicine which is an aminoside antibiotic.
And the growth of the resistance was studied with gentamicine alone, then with gentamicine in presence of Fli.
The trial was conducted on 12 days, and the MIC of gentamicine alone and of gentamicine in presence of Fli (4 ppm) was determined each day on transportplates in liquid medium with a serie of dilution in Mueller/Hinton agar.
The MBC (Minimal Bactericide Concentration) was also determined from the solution after determination of the MIC seeded on agar adapted to the strain. The MBC is read for a percentage of survivors less than 0,20%.

proteus mirabilis = assay: "chess" test, dilution in liquid medium, Trial 2; format: cell-based
Description: as §6
The strain was a very resistant proteus mirabilis (wild-type hospital)

Klebsiella pneumoniae [10] = assay: "chess" test, dilution in liquid medium, Trial 3; format: cell-based
Description: as §6
The strain was Klebsiella pneumoniae (wild-type hospital strain)

serratia marcescens [11] = assay: "Time killing curve", optical density at 600 nm; format: cell-based; conditions: Fli 32 ppm
Protocol: (§7) The kinetics of the bacterial growth of serratia marcescens and salmonella spirochete has been studied with the "Time killing curve" methodology, for gentamicine (64 ppm) alone, Fli (32 ppm) and gentamicine (64 ppm) in presence of Fli (32 ppm). The bacterial growth is determined by spectrophotometric reading of the optical density for a wavelength of 600 nm.
(§8) The following table illustrates the optical density (1/100) obtained: […]

salmonella spirochete = assay: "Time killing curve", optical density at 600 nm; format: cell-based; conditions: Fli 32 ppm
Protocol: as §7, §8

[12] = read-out: 100% inhibitory concentration, alone
[13] = A (gentamicine) in presence of B (Fli)

Q: Which results are given for `CN(C)C1C(=O)C(C(N)=O)=C(O)C2(O)C(=O)C3=C(O)c4c(O)cccc4C(C)(O)C3CC12` (centres unmarked) [TETRACYCLINE, tetracycline]?
A: MIC (Klebsiella pneumoniae [1]; [12]): 0.5 µg/mL (≈ 1.13 µM); MIC (Klebsiella pneumoniae [1]; read-out: 100% inhibitory concentration, in the presence of LiF 2 ppm): 0.25 µg/mL; MIC (Klebsiella pneumoniae [2]): 512 µg/mL (≈ 1150 µM); MIC (Haemophilus influenzae; [12]): 4 to 8 µg/mL (≈ 9 to 18 µM); MIC (Haemophilus influenzae; read-out: 100% inhibitory concentration, in the presence of LiF 4 ppm): 2 to 4 µg/mL; MIC A/B (Staphylococcus aureus [3]): 4 µg/mL; MIC (Staphylococcus aureus [4]): 32 µg/mL (≈ 72 µM)

Q: Which “phenotype in presence of Fli” value (streptococcus group F) does the source give for `CC1(C)S[C@@H]2[C@H](NC(=O)Cc3ccccc3)C(=O)N2[C@H]1C(=O)O` [penicilline group G] here?
A: The value was “the insensible phenotype was not changed”.

Q: POLYMIXIN B was tested. Which 100% inhibitory concentration (Escherichia coli; alone) did it give?
A: The 100% inhibitory concentration was over 128 ppm.

Q: What about the 100% inhibitory concentration (Escherichia coli; in the presence of LiF 2 ppm) of the same compound?
A: Its 100% inhibitory concentration is 64 ppm.

Q: And the 100% inhibitory concentration (Staphylococcus aureus [5]; alone)?
A: Its 100% inhibitory concentration is over 128 ppm.

Q: And the 100% inhibitory concentration (Staphylococcus aureus [5]; in the presence of LiF 2 ppm)?
A: Its 100% inhibitory concentration is 64 ppm.

Q: And the 100% inhibitory concentration (Group C streptococcus; alone)?
A: The 100% inhibitory concentration was over 128 ppm.

Q: And the 100% inhibitory concentration (Group C streptococcus; in the presence of LiF 8 ppm)?
A: The 100% inhibitory concentration was 64 ppm.

Q: For gentamicine, which MIC (Pseudomonas aeruginosa [6]) is on record?
A: Its MIC is 64 ppm or mg/l.

Q: What about the MIC (serratia marcescens [7]; in presence of Fli at 8, SENSIBLE strains) of the same compound?
A: Its MIC is 8 ppm or mg/l.

Q: What about the MIC (serratia marcescens [7]; in presence of Fli at 16, RESISTANT strains) of the same compound?
A: Its MIC is 32 ppm or mg/l.

Q: What about the “MIC A/B” value (Pseudomonas aeruginosa [8]; [13]) of the same compound?
A: The value was 16 µg/mL.

Q: And the “MIC alone (MIC A, MIC B)” value (Pseudomonas aeruginosa [8]; alone, wild-type hospital resistant strain)?
A: Its value is 64 µg/mL.

Q: And the “day the resistance appears” value ([9]; gentamicine alone)?
A: Its value is “the third or fourth day”.

Q: What about the “day the resistance appears” value ([9]; gentamicine with Fli (4 ppm)) of the same compound?
A: Its value is “the fourth or sixth day”.

Q: And the “MIC A/B” value (proteus mirabilis; [13])?
A: Its value is 16 µg/mL.

Q: What about the “MIC alone (MIC A, MIC B)” value (proteus mirabilis; alone, very resistant wild-type hospital strain) of the same compound?
A: The value was 64 µg/mL.

Q: And the “MIC A/B” value (Klebsiella pneumoniae [10]; [13])?
A: The value was 4 µg/mL.

Q: And the “MIC alone (MIC A, MIC B)” value (Klebsiella pneumoniae [10]; alone, wild-type hospital strain)?
A: Its value is 16 µg/mL.

Q: What about the “optical density (1/100)” value (serratia marcescens [11]; 6 h 00, gentamicine 64 ppm) of the same compound?
A: Its value is 5 1/100.

Q: And the “optical density (1/100)” value (serratia marcescens [11]; 24 h 00, gentamicine 64 ppm)?
A: The value was 4 1/100.

Q: And the “optical density (1/100)” value (salmonella spirochete; 3 h 00, gentamicine 64 ppm)?
A: The value was 8 1/100.

Q: What about the “optical density (1/100)” value (salmonella spirochete; 6 h 00, gentamicine 64 ppm) of the same compound?
A: The value was 7 1/100.
